This note sets out measurements from patent US20230167073A1 (Teijin Pharma Limited, priority 2020, published 2023).

The assay deals with T1, Human TRPC6 (Homo sapiens, UniProt Q9Y210).
T1 construct: expressed in transfected cells
T1 sequence (Q9Y210 1-931): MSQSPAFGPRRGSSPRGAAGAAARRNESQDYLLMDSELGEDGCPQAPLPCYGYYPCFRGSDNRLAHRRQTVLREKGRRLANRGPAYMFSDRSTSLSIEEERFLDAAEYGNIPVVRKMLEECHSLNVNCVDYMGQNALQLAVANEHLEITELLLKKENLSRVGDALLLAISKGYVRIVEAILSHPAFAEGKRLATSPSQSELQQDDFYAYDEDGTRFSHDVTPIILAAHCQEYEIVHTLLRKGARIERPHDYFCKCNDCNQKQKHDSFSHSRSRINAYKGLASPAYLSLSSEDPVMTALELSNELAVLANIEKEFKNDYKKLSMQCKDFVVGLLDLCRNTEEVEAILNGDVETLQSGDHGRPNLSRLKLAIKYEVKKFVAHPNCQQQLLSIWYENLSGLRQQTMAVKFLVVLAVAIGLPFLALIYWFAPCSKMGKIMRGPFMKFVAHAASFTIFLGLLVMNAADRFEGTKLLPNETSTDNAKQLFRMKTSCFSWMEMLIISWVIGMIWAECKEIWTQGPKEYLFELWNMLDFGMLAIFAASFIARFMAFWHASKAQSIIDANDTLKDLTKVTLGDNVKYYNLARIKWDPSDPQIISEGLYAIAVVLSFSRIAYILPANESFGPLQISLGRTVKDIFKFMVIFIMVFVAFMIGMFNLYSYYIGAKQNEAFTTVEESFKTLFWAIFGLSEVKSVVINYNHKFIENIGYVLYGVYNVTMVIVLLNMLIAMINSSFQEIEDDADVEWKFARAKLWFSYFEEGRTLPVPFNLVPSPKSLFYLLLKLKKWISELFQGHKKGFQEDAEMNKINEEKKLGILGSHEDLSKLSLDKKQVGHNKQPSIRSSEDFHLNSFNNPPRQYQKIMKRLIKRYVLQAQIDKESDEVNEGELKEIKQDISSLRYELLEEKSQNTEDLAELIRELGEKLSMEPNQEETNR
Description: Evaluation of TRPC6 channel inhibitory activity (1), FLIPR Calcium 5 Assay Kit, OAG stimulation (Compound Nos. 1-1293). It counts as cell-based. The settings on record: Human TRPC6 stably-expressing cells, OAG 30 μM, FLIPR Calcium 5 Assay Kit; read-out: Inhibitory activity (pIC50 class) (converted). A digest of the protocol: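 Stable human TRPC6 line; fluorescent Ca2+ dye loading, then 20 min compound exposure before 30 μM OAG trigger. Peak-minus-baseline signal converted to % inhibition against untreated and unstimulated wells; potency given as pIC50 band.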

A value given as a limit tells only on which side of the number the result lay.

Consider `N#Cc1ccc(-n2cc(C(O)CN)cn2)c(Oc2cnnc(-c3ccccc3)c2)c1` (stereo not drawn) [Compound 154, 4-[4-(2-amino-1-hydroxyethyl)pyrazol-1-yl]-3-(6-phenylpyridazin-4-yl)oxybenzonitrile], for which the IC50 was 10 to 1000 nM.

Regarding `N#Cc1ccc(-n2cc(C(O)CN)cn2)c(Oc2cc(N3CCOCC3)nc(C(F)(F)F)n2)c1` (stereo not drawn) [Compound 155, 4-[4-(2-amino-1-hydroxyethyl)pyrazol-1-yl]-3-[6-morpholin-4-yl-2-(trifluoromethyl)pyrimidin-4-yl]oxybenzonitrile], the IC50 was 10 to 1000 nM. Regarding `COc1cc(-c2ccc(C#N)cc2Oc2cc(N3CCOCC3)nc(C)n2)ccc1C(O)CN` (stereo not drawn) [Compound 156, 4-[4-(2-amino-1-hydroxyethyl)-3-methoxyphenyl]-3-(2-methyl-6-morpholin-4-ylpyrimidin-4-yl)oxybenzonitrile], the IC50 is 10 to 1000 nM. Take `Cc1nc(Oc2cc(C#N)ccc2-c2ccc(C(O)CN)cc2C)cc(N2CCOCC2)n1` (stereo not drawn) [Compound 157, 4-[4-(2-amino-1-hydroxyethyl)-2-methylphenyl]-3-(2-methyl-6-morpholin-4-ylpyrimidin-4-yl)oxybenzonitrile]: the IC50 was less than 10 nM. For `Cc1nc(Oc2cc(C#N)ccc2-c2ccc(C(O)CN)c(CC#N)c2)cc(N2CCOCC2)n1` (stereo not drawn) [Compound 158, 4-[4-(2-amino-1-hydroxyethyl)-3-(cyanomethyl)phenyl]-3-(2-methyl-6-morpholin-4-ylpyrimidin-4-yl)oxybenzonitrile], the IC50 is 10 to 1000 nM.

Take `Cc1nc(Oc2cc(C#N)ccc2-n2cc(C(O)CN)cn2)cc(-c2cccc(Cl)c2)n1` (stereo not drawn) [Compound 159, 4-[4-(2-amino-1-hydroxyethyl)pyrazol-1-yl]-3-[6-(3-chlorophenyl)-2-methylpyrimidin-4-yl]oxybenzonitrile]: the IC50 is less than 10 nM. Turning to `Cn1nc(-c2ccccn2)cc1Oc1cc(C#N)ccc1-c1ccc(CCN)cc1` [Compound 160, 4-[4-(2-aminoethyl)phenyl]-3-(2-methyl-5-pyridin-2-ylpyrazol-3-yl)oxybenzonitrile], the IC50 was less than 10 nM. With `Cn1nc(-c2ccccn2)cc1Oc1cc(C#N)ccc1-c1ccc(C(O)CN)cc1` (stereo not drawn) [Compound 161, 4-[4-(2-amino-1-hydroxyethyl)phenyl]-3-(2-methyl-5-pyridin-2-ylpyrazol-3-yl)oxybenzonitrile], the IC50 is less than 10 nM. For `Cn1nc(-c2ccccn2)cc1Oc1cc(C#N)ccc1-c1ccc(CCN)nc1` [Compound 162, 4-[6-(2-aminoethyl)pyridin-3-yl]-3-(2-methyl-5-pyridin-2-ylpyrazol-3-yl)oxybenzonitrile], the IC50 was less than 10 nM. As for `Cn1nc(-c2cccnc2)cc1Oc1cc(C#N)ccc1-c1ccc(CCN)cc1` [Compound 163, 4-[4-(2-aminoethyl)phenyl]-3-(2-methyl-5-pyridin-3-ylpyrazol-3-yl)oxybenzonitrile], the figure is 10 to 1000 nM; as for `Cc1ccc(-c2cc(Oc3cc(C#N)ccc3-c3ccc(CCN)cc3)n(C)n2)nc1` [Compound 164, 4-[4-(2-aminoethyl)phenyl]-3-[2-methyl-5-(5-methylpyridin-2-yl)pyrazol-3-yl]oxybenzonitrile], less than 10 nM. `Cn1nc(-c2ccc(F)cc2)cc1Oc1cc(C#N)ccc1-c1ccc(CCN)cc1` [Compound 165, 4-[4-(2-aminoethyl)phenyl]-3-[5-(4-fluorophenyl)-2-methylpyrazol-3-yl]oxybenzonitrile]: the IC50 is 10 to 1000 nM. As for `Cc1nc(Oc2cc(C#N)ccc2-c2ccc(CCN)nc2)cc(-c2ccccn2)n1` [Compound 166, 4-[6-(2-aminoethyl)pyridin-3-yl]-3-(2-methyl-6-pyridin-2-ylpyrimidin-4-yl)oxybenzonitrile], the IC50 is 10 to 1000 nM.

As to `Cc1nc(Oc2cc(C#N)ccc2-c2ccc(CCN)nc2)cc(-c2cccc(F)c2)n1` [Compound 167, 4-[6-(2-aminoethyl)pyridin-3-yl]-3-[6-(3-fluorophenyl)-2-methylpyrimidin-4-yl]oxybenzonitrile], the IC50 was 10 to 1000 nM.

In the case of `Cc1nc(Oc2cc(C#N)ccc2-c2csc(C(O)CN)n2)cc(N2CCOCC2)n1` (stereo not drawn) [Compound 168, 4-[2-(2-amino-1-hydroxyethyl)-1,3-thiazol-4-yl]-3-(2-methyl-6-morpholin-4-ylpyrimidin-4-yl)oxybenzonitrile], the IC50 was 10 to 1000 nM.

With `Cc1nc(Oc2cc(C#N)ccc2-n2cnc(C(O)CN)c2)cc(N2CCOCC2)n1` (stereo not drawn) [Compound 169, 4-[4-(2-amino-1-hydroxyethyl)imidazol-1-yl]-3-(2-methyl-6-morpholin-4-ylpyrimidin-4-yl)oxybenzonitrile], the IC50 was more than 1000 nM. Regarding `Cc1nc(Oc2cc(C#N)ccc2-n2cc([C@@H](O)CN)cn2)cc(-c2ccccc2)n1` [Compound 170, 4-[4-[(1R)-2-Amino-1-hydroxyethyl]pyrazol-1-yl]-3-(2-methyl-6-phenylpyrimidin-4-yl)oxybenzonitrile], the IC50 was less than 10 nM.

As to `Cc1nc(Oc2cc(C#N)ccc2-n2cc([C@H](O)CN)cn2)cc(-c2ccccc2)n1` [Compound 171, 4-[4-[(1S)-2-amino-1-hydroxyethyl]pyrazol-1-yl]-3-(2-methyl-6-phenylpyrimidin-4-yl)oxybenzonitrile], the IC50 is less than 10 nM. Turning to `Cc1cc(Oc2cc(C#N)ccc2-c2ccc(CCN)nc2)cc(N2CCOCC2)n1` [Compound 172, 4-[6-(2-aminoethyl)pyridin-3-yl]-3-(2-methyl-6-morpholin-4-ylpyridin-4-yl)oxybenzonitrile], the IC50 is less than 10 nM. In the case of `Cc1cc(Oc2cc(C#N)ccc2-c2ccc(CCN)cn2)cc(N2CCOCC2)n1` [Compound 173, 4-[5-(2-aminoethyl)pyridin-2-yl]-3-(2-methyl-6-morpholin-4-ylpyridin-4-yl)oxybenzonitrile], the IC50 was less than 10 nM.

As for `Cn1nc(-c2ccccc2)cc1Oc1cc(C#N)ccc1-c1ccc(CCN)nc1` [Compound 174, 4-[6-(2-aminoethyl)pyridin-3-yl]-3-(2-methyl-5-phenylpyrazol-3-yl)oxybenzonitrile], the IC50 was less than 10 nM. `Cn1nc(-c2ccccc2)cc1Oc1cc(C#N)ccc1-c1ccc(CCN)cn1` [Compound 175, 4-[5-(2-aminoethyl)pyridin-2-yl]-3-(2-methyl-5-phenylpyrazol-3-yl)oxybenzonitrile]: the IC50 is less than 10 nM.

`Cn1nc(-c2ccccn2)cc1Oc1cc(C#N)ccc1-c1ccc(CCN)cn1` [Compound 176, 4-[5-(2-aminoethyl)pyridin-2-yl]-3-(2-methyl-5-pyridin-2-ylpyrazol-3-yl)oxybenzonitrile]: the IC50 was less than 10 nM.

For the compound `Cn1nc(-c2cccnc2)cc1Oc1cc(C#N)ccc1-c1ccc(C(O)CN)cc1` (stereo not drawn) [Compound 177, 4-[4-(2-amino-1-hydroxyethyl)phenyl]-3-(2-methyl-5-pyridin-3-ylpyrazol-3-yl)oxybenzonitrile], the IC50 was less than 10 nM. In the case of `Cn1nc(-c2cccnc2)cc1Oc1cc(C#N)ccc1-c1ccc(CCN)nc1` [Compound 178, 4-[6-(2-aminoethyl)pyridin-3-yl]-3-(2-methyl-5-pyridin-3-ylpyrazol-3-yl)oxybenzonitrile], the IC50 is 10 to 1000 nM. Regarding `Cn1nc(-c2cccnc2)cc1Oc1cc(C#N)ccc1-c1ccc(CCN)cn1` [Compound 179, 4-[5-(2-aminoethyl)pyridin-2-yl]-3-(2-methyl-5-pyridin-3-ylpyrazol-3-yl)oxybenzonitrile], the IC50 was less than 10 nM. As to `Cc1ccc(-c2cc(Oc3cc(C#N)ccc3-c3ccc(C(O)CN)cc3)n(C)n2)nc1` (stereo not drawn) [Compound 180, 4-[4-(2-amino-1-hydroxyethyl)phenyl]-3-[2-methyl-5-(5-methylpyridin-2-yl)pyrazol-3-yl]oxybenzonitrile], the IC50 is less than 10 nM. As for `Cc1ccc(-c2cc(Oc3cc(C#N)ccc3-c3ccc(CCN)nc3)n(C)n2)nc1` [Compound 181, 4-[6-(2-aminoethyl)pyridin-3-yl]-3-[2-methyl-5-(5-methylpyridin-2-yl)pyrazol-3-yl]oxybenzonitrile], the figure is 10 to 1000 nM; as for `Cc1ccc(-c2cc(Oc3cc(C#N)ccc3-c3ccc(CCN)cn3)n(C)n2)nc1` [Compound 182, 4-[5-(2-aminoethyl)pyridin-2-yl]-3-[2-methyl-5-(5-methylpyridin-2-yl)pyrazol-3-yl]oxybenzonitrile], less than 10 nM; as for `Cn1nc(-c2ccc(F)cc2)cc1Oc1cc(C#N)ccc1-c1ccc(C(O)CN)cc1` (stereo not drawn) [Compound 183, 4-[4-(2-amino-1-hydroxyethyl)phenyl]-3-[5-(4-fluorophenyl)-2-methylpyrazol-3-yl]oxybenzonitrile], less than 10 nM.
